Measurements as given in the supplement of paper PMC11451515.

Tested on: NOMO1
Test: cell viability relative to DMSO control; higher = less cytotoxic
Details: 48 h
Outline: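 In 1536-well plates, 5 μl of leukemia cells were seeded per well: 500 cells/well for NOMO1 or SEM and 1000 cells/well for P12-Ichikawa. Each line had first been adapted for at least four passages in each medium. Library compounds in DMSO were pin-dosed at 11 threefold concentrations between 47 μM and 0.79 nM, and CellTiter-Glo One luminescence was read after 48 h at 37°C. Viability is a per-plate percentage relative to DMSO wells, with cell-free wells as background.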

[1] = HPLM + 10% dialyzed FBS, 0.000781 µM
[2] = HPLM + 10% dialyzed FBS, 0.00234 µM
[3] = HPLM + 10% dialyzed FBS, 0.00702 µM
[4] = HPLM + 10% dialyzed FBS, 0.0211 µM
[5] = HPLM + 10% dialyzed FBS, 0.0632 µM
[6] = HPLM + 10% dialyzed FBS, 0.19 µM
[7] = HPLM + 10% dialyzed FBS, 0.569 µM
[8] = HPLM + 10% dialyzed FBS, 1.71 µM
[9] = HPLM + 10% dialyzed FBS, 5.12 µM
[10] = HPLM + 10% dialyzed FBS, 15.4 µM
[11] = HPLM + 10% dialyzed FBS, 46.1 µM
[12] = RPMI 5 mM glucose + 10% FBS, 0.000781 µM
[13] = RPMI 5 mM glucose + 10% FBS, 0.00234 µM
[14] = RPMI 5 mM glucose + 10% FBS, 0.00702 µM
[15] = RPMI 5 mM glucose + 10% FBS, 0.0211 µM
[16] = RPMI 5 mM glucose + 10% FBS, 0.0632 µM
[17] = RPMI 5 mM glucose + 10% FBS, 0.19 µM
[18] = RPMI 5 mM glucose + 10% FBS, 0.569 µM
[19] = RPMI 5 mM glucose + 10% FBS, 1.71 µM
[20] = RPMI 5 mM glucose + 10% FBS, 5.12 µM
[21] = RPMI 5 mM glucose + 10% FBS, 15.4 µM
[22] = RPMI 5 mM glucose + 10% FBS, 46.1 µM
[23] = RPMI 5 mM glucose + 10% dialyzed FBS, 0.000781 µM
[24] = RPMI 5 mM glucose + 10% dialyzed FBS, 0.00234 µM
[25] = RPMI 5 mM glucose + 10% dialyzed FBS, 0.00702 µM
[26] = RPMI 5 mM glucose + 10% dialyzed FBS, 0.0211 µM
[27] = RPMI 5 mM glucose + 10% dialyzed FBS, 0.0632 µM
[28] = RPMI 5 mM glucose + 10% dialyzed FBS, 0.19 µM
[29] = RPMI 5 mM glucose + 10% dialyzed FBS, 0.569 µM
[30] = RPMI 5 mM glucose + 10% dialyzed FBS, 1.71 µM
[31] = RPMI 5 mM glucose + 10% dialyzed FBS, 5.12 µM
[32] = RPMI 5 mM glucose + 10% dialyzed FBS, 15.4 µM
[33] = RPMI 5 mM glucose + 10% dialyzed FBS, 46.1 µM

Row | SMILES | cell viability [1] [%] | cell viability [2] [%] | cell viability [3] [%] | cell viability [4] [%] | cell viability [5] [%] | cell viability [6] [%] | cell viability [7] [%] | cell viability [8] [%] | cell viability [9] [%] | cell viability [10] [%] | cell viability [11] [%] | cell viability [12] [%] | cell viability [13] [%] | cell viability [14] [%] | cell viability [15] [%] | cell viability [16] [%] | cell viability [17] [%] | cell viability [18] [%] | cell viability [19] [%] | cell viability [20] [%] | cell viability [21] [%] | cell viability [22] [%] | cell viability [23] [%] | cell viability [24] [%] | cell viability [25] [%] | cell viability [26] [%] | cell viability [27] [%] | cell viability [28] [%] | cell viability [29] [%] | cell viability [30] [%] | cell viability [31] [%] | cell viability [32] [%] | cell viability [33] [%]
1 | COc1ccc([C@@H]2CC(=O)c3c(O)cc(O[C@@H]4O[C@H](CO[C@@H]5O[C@@H](C)[C@H](O)[C@@H](O)[C@H]5O)[C@@H](O)[C@H](O)[C@H]4O)cc3O2)cc1O | 107 | 117 | 122 | 128 | 116 | 123 | 125 | 118 | 115 | 108 | 103 | 120 | 106 | 107 | 114 | 121 | 118 | 117 | 123 | 120 | 119 | 118 | 98.8 | 106 | 115 | 113 | 110 | 96.6 | 115 | 125 | 115 | 101 | 101
2 | CCN(CC)CCCCNc1ncc2cc(-c3cc(OC)cc(OC)c3)c(NC(=O)NC(C)(C)C)nc2n1 | 122 | 136 | 125 | 113 | 111 | 108 | 94.8 | 86.8 | 104 | 83.8 | 33.2 |  |  |  |  |  |  |  |  |  |  |  |  |  |  |  |  |  |  |  |  |  | 
3 | COC\1=C(/OC)C(=O)\C(=C(C)/C1=O)CCCCCCCCCCO | 97.4 | 132 | 118 | 148 | 114 | 134 | 153 | 154 | 148 | 122 | 61.6 |  |  |  |  |  |  |  |  |  |  |  |  |  |  |  |  |  |  |  |  |  | 
4 | CNCCCC12CCC(c3ccccc31)c1ccccc12 | 106 | 102 | 107 | 110 | 111 | 99.9 | 101 | 90 | 95.2 | 63.5 | 18.3 | 104 | 94.9 | 92.2 | 97.2 | 95.2 | 84.4 | 85.8 | 98.3 | 79.2 | 80.9 | 60.6 | 94.5 | 87.9 | 88.2 | 106 | 91.6 | 91 | 85.1 | 94 | 76.2 | 74.4 | 38.4
5 | CC[S+](=O)([O-])c1cccc(-c2cc(C(=O)NC3CCN(C)CC3)c(C)c3[nH]c4ncc(C)cc4c23)c1 | 118 | 128 | 120 | 136 | 126 | 89.9 | 115 | 68.2 | 52.6 | 51 | 6.96 | 114 | 115 | 114 | 135 | 128 | 111 | 77.3 | 83.9 | 92.6 | 47 | 8.64 | 124 | 122 | 130 | 128 | 138 | 87.7 | 80.7 | 86.8 | 80.3 | 48.3 | 8.02
6 | C[C@]12CC[C@H]3[C@@H](CC[C@H]4NC(=O)\C=C/[C@]34C)[C@@H]1CC[C@@H]2C(=O)NC5=CC(=CC=C5C(F)(F)F)C(F)(F)F | 123 | 123 | 122 | 118 | 123 | 114 | 101 | 118 | 107 | 96.1 | 94.7 | 117 | 125 | 114 | 100 | 111 | 109 | 112 | 112 | 107 | 96.3 | 98.8 | 105 | 120 | 105 | 118 | 104 | 111 | 111 | 103 | 94.9 | 103 | 96.9
7 | CCC[S+]([O-])c1ccc2[nH]c(NC(=O)OC)nc2c1 (stereo not given) | 102 | 81.8 | 100 | 106 | 98.5 | 109 | 95 | 79.5 | 93.5 | 72.2 | 18.7 | 88.2 | 96.6 | 94.2 | 103 | 101 | 89.9 | 101 | 82 | 93.8 | 71.2 | 15.5 | 94.5 | 91.3 | 94.7 | 87.4 | 84.9 | 88.8 | 81.7 | 76.4 | 81.2 | 58.4 | 19.4
8 | O=c1[nH]c(=O)n([C@H]2C[C@H](O)[C@@H](CO)O2)cc1/C=C/Br | 89.1 | 108 | 120 | 108 | 123 | 108 | 96.2 | 96.5 | 79.4 | 72.4 | 55.4 | 93.9 | 111 | 97.7 | 106 | 114 | 101 | 113 | 117 | 106 | 120 | 110 | 123 | 110 | 102 | 122 | 119 | 114 | 107 | 121 | 134 | 130 | 105
9 | CCOC(=O)N1CCN(/[N+]([O-])=N/Oc2ccc([N+](=O)[O-])cc2C#N)CC1 | 118 | 99.3 | 109 | 110 | 135 | 114 | 117 | 97.1 | 39.5 | 39.6 | 36.1 | 98.4 | 97.4 | 114 | 105 | 102 | 105 | 122 | 120 | 24.5 | 24.6 | 18.2 | 92.8 | 106 | 129 | 111 | 126 | 115 | 118 | 108 | 30.8 | 24.6 | 18.3
10 | CN[C@H]1CCC2=CC(=C(OC)C(=C2C/3=C/C=C(OC)\C(=O)/C=C13)OC)OC | 119 | 96 | 75.2 | 30.1 | 32.9 | 38.4 | 43.5 | 40.9 | 31.4 | 33.9 | 25.8 | 120 | 109 | 90.7 | 22.8 | 22.3 | 24.5 | 25.4 | 22.4 | 21.1 | 17.1 | 10.4 | 108 | 97.1 | 102 | 23.5 | 31.9 | 28.3 | 27.9 | 28.7 | 23.1 | 21.9 | 14.3
11 | c1ccc2[nH]c(-c3cscn3)nc2c1 | 122 | 113 | 136 | 121 | 133 | 135 | 122 | 133 | 107 | 102 | 90.8 |  |  |  |  |  |  |  |  |  |  |  |  |  |  |  |  |  |  |  |  |  | 
12 | OC[C@H]1O[C@H]([C@H](O)[C@@H]1O)N2\C=C/C(=O)NC2=O | 111 | 127 | 105 | 114 | 122 | 107 | 103 | 119 | 118 | 95.4 | 98.4 | 89.4 | 87.3 | 95.6 | 85.4 | 94.7 | 96.5 | 94.6 | 91.4 | 79.4 | 91.6 | 80.8 | 93.9 | 85.1 | 99.8 | 99.3 | 95.7 | 103 | 104 | 93.7 | 96 | 90.5 | 87.8
13 | COc1ccc(-c2ccc3ncc4c(c3c2)n(-c2ccc(N3CCNCC3)c(C(F)(F)F)c2)c(=O)n4C)cn1 | 97.7 | 79.7 | 57.1 | 67 | 51.5 | 45.9 | 47.4 | 24.6 | 4.81 | 3.74 | 2.4 | 105 | 100 | 90.4 | 79.7 | 70 | 54.5 | 49.1 | 32.6 | 32 | 4.07 | 3.17 | 94.5 | 78.3 | 70.9 | 70.5 | 57 | 46.1 | 42.9 | 29.8 | 5.1 | 3.25 | 1.92
14 | ClC1=CC=C(C=C1)C(C#N)C2=C(Cl)C=C(C=C2Cl)N3\N=C/C(=O)NC3=O (stereo not given) | 82.4 | 101 | 99.5 | 111 | 112 | 103 | 125 | 104 | 97.8 | 102 | 107 | 100 | 93.4 | 109 | 102 | 93.1 | 94.6 | 114 | 107 | 106 | 100 | 104 | 80.1 | 92.6 | 86.5 | 95.3 | 87.1 | 110 | 99.6 | 96.7 | 94.6 | 103 | 98.4
15 | C[C@H](NC(=O)c1sccc1OCc1ccc(Cl)cc1)c1ccccc1 | 80.8 | 88.2 | 80 | 77.6 | 91.5 | 87.5 | 69.1 | 68.5 | 86.9 | 80.1 | 69 | 85.6 | 83.6 | 72.4 | 82.2 | 94.3 | 77.9 | 83.1 | 78.7 | 77.7 | 81.1 | 77.5 | 91.3 | 83.6 | 77.9 | 90.7 | 82 | 76.2 | 66.8 | 82.6 | 90.8 | 77.7 | 87.8
16 | c1ccc(CCCN2CCN(CCOC(c3ccccc3)c3ccccc3)CC2)cc1 | 91.4 | 95.1 | 101 | 100 | 85 | 100 | 92.9 | 103 | 83.1 | 78.9 | 53.9 | 80.3 | 83.3 | 96 | 99.5 | 94.9 | 90.3 | 85.6 | 76.1 | 83.3 | 78 | 73.8 | 89.3 | 97.3 | 92.7 | 96.5 | 89.7 | 92.5 | 85.5 | 86.2 | 86.3 | 66.8 | 24.3
17 | NNCCc1ccccc1 | 109 | 133 | 119 | 131 | 112 | 115 | 108 | 118 | 111 | 60 | 30.4 | 117 | 132 | 122 | 117 | 124 | 117 | 115 | 114 | 114 | 103 | 21.2 | 116 | 116 | 129 | 107 | 125 | 121 | 122 | 109 | 109 | 114 | 75
